Experimental data as given in patent US20180311217A1, “METHODS OF TREATMENT AND COMPOSITIONS WITH XANTHINE OXIDASE INHIBITORS” (Takeda Pharmaceuticals U.S.A., Inc., priority 2013, published 2018).

Tests used:
[1] = tested on: hyperuricemic gout subjects with moderate to severe renal impairment; assay: Example 1 study: serum creatinine (sCr); assay type: in vivo, human; settings: for mean sCr: no prior and/or current use ARB or ACEi; for changes in sCr: prior and/or current use of ACEi; for changes in sCr / changes in mean sCr levels: Months 6 and 12; for change in sCr over time compared with placebo: sCr 2.0 to <2.5 mg/dL at Baseline; for change in sCr over time compared to placebo: sUA of 9.0 to <10.0 mg/dL at Baseline
Procedure: Efficacy of febuxostat was assessed by measurement of serum creatinine (and calculation of eGFR), clinic systolic and diastolic BP, and sUA levels. Serum samples for the analysis of serum creatinine (and calculation of eGFR) were collected at the time points stipulated in Schedule of Study Procedures (Table 1.). The primary efficacy variable was the change from Baseline to Month 12 in sCr. Summary statistics were presented for Baseline, postbaseline, and change from Baseline by treatment group at each visit. The primary analysis was based on the analysis of covariance (ANCOVA) model for change from baseline to Month 12 for the primary efficacy variable. The model included treatment as a factor, and the baseline sCr and prior use of an ARB or an ACEi (subjects taking an ARB or an ACEi or not taking an ARB or an ACEi) as covariates.

[2] = tested on: hyperuricemic gout subjects with moderate to severe renal impairment; assay: Example 1 study: eGFR using the MDRD formula; assay type: in vivo, human; settings: for change in eGFR over time: prior use of ACEi; for change in eGFR levels over time: prior use of ARB; for change in mean eGFR levels: subjects with moderate renal impairment
Procedure: Following the Study Day 1 Visit, subjects returned to the clinic for study visits at Day 14, Months 1, 3, 6, 9 and for a final visit at Month 12/ET Visit. […] Gout flare assessments were collected at each visit. Estimated GFR by Modification of Diet in Renal Disease (MDRD) calculation was performed by the Central Laboratory at all visits. Blood pressure (clinic with standardized instruments) was measured throughout the study. Adverse events, electrocardiograms (ECGs), clinical laboratory tests, and vital signs were collected at each visit.
The secondary efficacy variables for this study included change from baseline to Month 12 in eGFR using the MDRD formula; and percentage of subjects with sUA<6.0 mg/dL at Month 12.
An ANCOVA analysis similar to the primary analysis was used for analysis of eGFR. Subgroup analyses were also summarized for eGFR as for the primary endpoint.

[3] = oral administration; cited from earlier work

**Q.** What does the source list for Cc1nc(-c2ccc(OCC(C)C)c(C#N)c2)sc1C(=O)O [Febuxostat, 2-[3-cyano-4-(2-methylpropoxy)phenyl]-4-methylthiazole-5-carboxylic acid]?
**A.** renal function preservation compared with febuxostat 40/80 mg QD ([1]; 30 mg BID): better renal function preservation; Serum Creatinine, Change from Baseline ([1]; 30 mg BID, Day 14): 0.09 mg/dL; Serum Creatinine, Mean ([1]; 30 mg BID, Day 14): 2.18 mg/dL; Serum Creatinine, Change from Baseline ([1]; 30 mg BID, Month 1): 0.13 mg/dL; Serum Creatinine, Mean ([1]; 30 mg BID, Month 1): 2.23 mg/dL; Serum Creatinine, Change from Baseline ([1]; 30 mg BID, Month 3): 0.09 mg/dL; Serum Creatinine, Mean ([1]; 30 mg BID, Month 3): 2.18 mg/dL; Serum Creatinine, Change from Baseline ([1]; 30 mg BID, Month 6): 0.03 mg/dL; Serum Creatinine, Mean ([1]; 30 mg BID, Month 6): 2.12 mg/dL; Serum creatinine change from Baseline, LS mean ([1]; 30 mg BID, Month 6): 0.04 mg/dL; Serum creatinine change from Baseline, LS mean difference from placebo group ([1]; 30 mg BID, Month 6): -0.11 mg/dL; Serum Creatinine, Change from Baseline ([1]; 30 mg BID, Month 9): 0.11 mg/dL; Serum Creatinine, Mean ([1]; 30 mg BID, Month 9): 2.21 mg/dL; Serum Creatinine, Change from Baseline ([1]; 30 mg BID, Month 12): 0.04 mg/dL; Serum Creatinine, Mean ([1]; 30 mg BID, Month 12): 2.13 mg/dL; Serum creatinine change from Baseline, LS mean ([1]; 30 mg BID, Month 12): 0.09 mg/dL; Serum creatinine change from Baseline, LS mean difference from placebo group ([1]; 30 mg BID, Month 12): -0.10 mg/dL; mean sCr ([1]; 30 mg BID): increased; changes in sCr ([1]; 30 mg BID): slight improvements; changes in mean sCr levels ([1]; 30 mg BID, prior and/or current use of ARB): minimal changes or a slight improvement; change in sCr over time compared with placebo ([1]; 30 mg BID): small favorable trend; change in sCr over time compared to placebo ([1]; 30 mg BID): small favorable trend; changes in mean sCr levels ([1]; 30 mg BID, subjects with moderate renal impairment): minimal changes; Serum Creatinine, Change from Baseline ([1]; 40/80 mg QD, Day 14): 0.08 mg/dL; Serum Creatinine, Mean ([1]; 40/80 mg QD, Day 14): 2.30 mg/dL; Serum Creatinine, Change from Baseline ([1]; 40/80 mg QD, Month 1): 0.05 mg/dL; Serum Creatinine, Mean ([1]; 40/80 mg QD, Month 1): 2.25 mg/dL; Serum Creatinine, Change from Baseline ([1]; 40/80 mg QD, Month 3): 0.04 mg/dL; Serum Creatinine, Mean ([1]; 40/80 mg QD, Month 3): 2.24 mg/dL; Serum Creatinine, Change from Baseline ([1]; 40/80 mg QD, Month 6): 0.06 mg/dL; Serum Creatinine, Mean ([1]; 40/80 mg QD, Month 6): 2.26 mg/dL; Serum creatinine change from Baseline, LS mean ([1]; 40/80 mg QD, Month 6): 0.07 mg/dL; Serum creatinine change from Baseline, LS mean difference from placebo group ([1]; 40/80 mg QD, Month 6): -0.08 mg/dL; Serum Creatinine, Change from Baseline ([1]; 40/80 mg QD, Month 9): 0.01 mg/dL; Serum Creatinine, Mean ([1]; 40/80 mg QD, Month 9): 2.22 mg/dL; Serum Creatinine, Change from Baseline ([1]; 40/80 mg QD, Month 12): 0.19 mg/dL; Serum Creatinine, Mean ([1]; 40/80 mg QD, Month 12): 2.40 mg/dL; Serum creatinine change from Baseline, LS mean ([1]; 40/80 mg QD, Month 12): 0.23 mg/dL; Serum creatinine change from Baseline, LS mean difference from placebo group ([1]; 40/80 mg QD, Month 12): 0.04 mg/dL; mean sCr ([1]; 40/80 mg QD): increased; changes in sCr ([1]; 40/80 mg QD): minimal changes; change in sCr over time compared with placebo ([1]; 40/80 mg QD): small favorable trend; change in sCr over time compared to placebo ([1]; 40/80 mg QD): small favorable trend; changes in mean sCr levels ([1]; 40/80 mg, prior and/or current use of ARB): minimal changes or a slight improvement; changes in mean sCr levels ([1]; 40/80 mg, subjects with moderate renal impairment): small increases; eGFR using MDRD formula, Change from Baseline ([2]; 30 mg BID, Day 14): −0.99 mL/min/1.73 m^2; eGFR using MDRD formula, Mean (SD) ([2]; 30 mg BID, Day 14): 33.25 (8.042) mL/min/1.73 m^2; eGFR using MDRD formula, Change from Baseline ([2]; 30 mg BID, Month 1): −1.48 mL/min/1.73 m^2; eGFR using MDRD formula, Mean (SD) ([2]; 30 mg BID, Month 1): 32.99 (8.305) mL/min/1.73 m^2; eGFR using MDRD formula, Change from Baseline ([2]; 30 mg BID, Month 3): −0.72 mL/min/1.73 m^2; eGFR using MDRD formula, Mean (SD) ([2]; 30 mg BID, Month 3): 33.52 (9.005) mL/min/1.73 m^2; eGFR Change from Baseline, LS mean (SE) ([2]; 30 mg BID, Month 6): 0.03 (0.955) mL/min/1.73 m^2; eGFR Change from Baseline, LS mean difference (SE) from placebo group ([2]; 30 mg BID, Month 6): 1.74 (1.374) mL/min/1.73 m^2; eGFR using MDRD formula, Change from Baseline ([2]; 30 mg BID, Month 6): −0.06 mL/min/1.73 m^2; eGFR using MDRD formula, Mean (SD) ([2]; 30 mg BID, Month 6): 34.18 (8.004) mL/min/1.73 m^2; eGFR using MDRD formula, Change from Baseline ([2]; 30 mg BID, Month 9): −0.91 mL/min/1.73 m^2; eGFR using MDRD formula, Mean (SD) ([2]; 30 mg BID, Month 9): 33.33 (9.468) mL/min/1.73 m^2; eGFR Change from Baseline, LS mean (SE) ([2]; 30 mg BID, Month 12): 0.33 (1.172) mL/min/1.73 m^2; eGFR Change from Baseline, LS mean difference (SE) from placebo group ([2]; 30 mg BID, Month 12): 2.38 (1.687) mL/min/1.73 m^2; eGFR using MDRD formula, Change from Baseline ([2]; 30 mg BID, Month 12): 0.32 mL/min/1.73 m^2; eGFR using MDRD formula, Mean (SD) ([2]; 30 mg BID, Month 12): 34.56 (9.382) mL/min/1.73 m^2; eGFR Change from Baseline, LS mean (SE) ([2]; 30 mg BID, Month 12, listed as febuxostat): 0.33 mL/min/1.73 m^2; change in eGFR over time ([2]; 30 mg BID): slight improvements; change in eGFR levels over time ([2]; 30 mg BID): modest improvements; change in eGFR over time compared with placebo ([2]; 30 mg BID, sUA of 9.0 to <10.0 mg/dL at Baseline): small favorable trend; change in eGFR over time compared with placebo ([2]; 30 mg BID, sUA≥10.0 mg/dL at Baseline): small trend was apparent; change in eGFR over time compared with placebo ([2]; 30 mg BID, serum creatinine 2.0 to <2.5 mg/dL at Baseline): small favorable trend; change in mean eGFR levels ([2]; 30 mg BID, Month 12): small improvement; eGFR using MDRD formula, Change from Baseline ([2]; 40/80 mg QD, Day 14): −0.52 mL/min/1.73 m^2; eGFR using MDRD formula, Mean (SD) ([2]; 40/80 mg QD, Day 14): 33.87 (10.259) mL/min/1.73 m^2; eGFR using MDRD formula, Change from Baseline ([2]; 40/80 mg QD, Month 1): −0.29 mL/min/1.73 m^2; eGFR using MDRD formula, Mean (SD) ([2]; 40/80 mg QD, Month 1): 33.91 (10.482) mL/min/1.73 m^2; eGFR using MDRD formula, Change from Baseline ([2]; 40/80 mg QD, Month 3): 0.14 mL/min/1.73 m^2; eGFR using MDRD formula, Mean (SD) ([2]; 40/80 mg QD, Month 3): 34.34 (10.474) mL/min/1.73 m^2; eGFR Change from Baseline, LS mean (SE) ([2]; 40/80 mg QD, Month 6): 0.04 (0.969) mL/min/1.73 m^2; eGFR Change from Baseline, LS mean difference (SE) from placebo group ([2]; 40/80 mg QD, Month 6): 1.75 (1.383) mL/min/1.73 m^2; eGFR using MDRD formula, Change from Baseline ([2]; 40/80 mg QD, Month 6): −0.03 mL/min/1.73 m^2; eGFR using MDRD formula, Mean (SD) ([2]; 40/80 mg QD, Month 6): 34.18 (11.067) mL/min/1.73 m^2; eGFR using MDRD formula, Change from Baseline ([2]; 40/80 mg QD, Month 9): 1.18 mL/min/1.73 m^2; eGFR using MDRD formula, Mean (SD) ([2]; 40/80 mg QD, Month 9): 35.39 (10.930) mL/min/1.73 m^2; eGFR Change from Baseline, LS mean (SE) ([2]; 40/80 mg QD, Month 12): −0.86 (0.190) mL/min/1.73 m^2; eGFR Change from Baseline, LS mean difference (SE) from placebo group ([2]; 40/80 mg QD, Month 12): 1.19 (1.698) mL/min/1.73 m^2; eGFR using MDRD formula, Change from Baseline ([2]; 40/80 mg QD, Month 12): −0.82 mL/min/1.73 m^2; eGFR using MDRD formula, Mean (SD) ([2]; 40/80 mg QD, Month 12): 33.38 (11.949) mL/min/1.73 m^2; eGFR Change from Baseline, LS mean (SE) ([2]; 40/80 mg QD, Month 12, listed as febuxostat): −0.086 mL/min/1.73 m^2; change in eGFR over time ([2]; 40/80 mg QD): slight improvements; change in eGFR over time compared with placebo ([2]; 40/80 mg QD, sUA of 9.0 to <10.0 mg/dL at Baseline): small favorable trend; change in eGFR over time compared with placebo ([2]; 40/80 mg QD, serum creatinine 2.0 to <2.5 mg/dL at Baseline): small favorable trend; change in eGFR levels over time ([2]; 40/80 mg): moderate to large decreases; change in mean eGFR levels ([2]; 40/80 mg, Month 12): small decreases; orally administered febuxostat eliminated in the urine as unchanged drug [3]: < 4%
